Like-named read-outs stand apart in the source and are kept apart here.
Tests used:
lactating heifers = assay: Milk production after ruminal versus abomasal infusion (Example 4); type: in vivo, Holstein heifers; conditions: infused in the abomasum compared to equivalent amount in the rumen
From the text: The experimental procedure and animal treatments is the same as described above for example 1, except that the Holstein heifers were lactating heifers.

Holstein heifers [1] = tested on: Holstein heifers
Protocol: The objective of this experiment was to evaluate the effects of ruminal versus abomasal infusion of ammonia (an equivalent source of NPN) on food intake in ruminants.
Feed intake was calculated according to the following formula: Feed intake=[amount of feed provided at the beginning of the day]−[amount of feed left intact (i.e. not eaten) after a period of 24 hours]). Results

Holstein heifers [2] = assay: Somatic growth after ruminal versus abomasal infusion (Example 3); type: in vivo; conditions: infused in the abomasum compared to equivalent amount in the rumen; at least 2 months
From the text: Heifers are individually weighed on the first day of each experimental period (i.e. day 1) and on the last day of the experimental period (i.e., after at least 2 months, such as after 6 months). […] An increase in body weight indicates an increase in somatic growth while a decrease or no change in body weight indicates a decrease in somatic growth or unchanged somatic growth, respectively.

Holstein heifers [3] = assay: Nitrogen intake, excretion, digestibility and retention after ruminal infusion of urea sources; type: in vivo
Protocol: Each heifer was rumen-cannulated.
On the first and second day of experimental period, faeces were collected during 48 h. During this period wood shaves were withdrawn from the mattresses. On day 1, before the ruminal infusion of tested articles, a baseline sample was taken directly from the rectum of each animal. From the moment of ruminal incubation, total faeces were collected for 48 hours. During collection days, faeces were well homogenized, weighted, and a sub-sample (≈200 g) taken on the following hours of the day: 0800 (only for day 2) 1100, 1500 and 1900.

Holstein heifers [4] = conditions: 150 g urea equivalent infused into rumen; 0-12 h post-infusion; FIG. 18
From the text: Three non-lactating, non-pregnant Holstein heifers were used for the experiment. The Holstein heifers were on average 48±0.5 months of age and weighed on average 800 kg. Each heifer was rumen-cannulated. The experimental design was a 3×3 Latin Square, involving 3 treatments, 3 periods and 3 animals. Experimental unit is the combination animal×period, totalizing 9 experimental units.
The experiment consisted of 3 treatment regimens (i.e. treatment groups 1, 2, and 3). Specifically, each treatment group differed with respect to the NPN composition they received.
Heifers were housed in a tie-stall barn with individual water and feed troughs, rubber mattresses, and wood shaving bedding. The tie-stall was cleaned and the wood shaving replaced daily. Heifers were fed low quality hay ad libitum. Each experimental period last 4 days in which test products were infused in the rumen (day one) and samples were taken on the following 48 h.
Rumen fluid samples were taken at 0, 0.5, 1, 2, 3, 6, and 12 h post-infusion through a tube adapted to the rumen cannula.

Holstein heifers [5] = assay: Apparent fiber digestibility after ruminal versus abomasal infusion of urea; type: in vivo
From the text: The experiment included a four-week adaptation period to a basal diet (in this case mimicking a winter tropical diet (winter tropical climate being an Aw climate) in addition to the distinct experimental periods (i.e. one experimental period per treatment regimen listed in Table 1), each lasting fourteen days.
Each heifer was rumen-cannulated. A tube was inserted into the abomasum via the rumen cannula to bypass the rumen.
The experiment consisted of two treatment groups subjected to different treatment regimens.
After the adaptation period, the heifers were exposed to the treatment regimens (i.e. consecutively, starting with treatment 1 and followed by treatment 2) as described in Table 1 (2 weeks per treatment regimen).
Heifers were fed low quality hay twice a day (08 h 30 and 16 h 30). The heifers were allowed to eat ad libitum during both feeding events.
An amount of one kilogram of compound feed (referred to as the ‘compound feed trial’), as a meal, was given in the morning (08 h 30) through the cannula (see Table 2). The details over the compositions of hay and compound feed (‘compound feed adaptation’ and ‘compound feed trial’) are presented in Table 3 below. Animals had free access to water troughs throughout the day.
All heifers were simultaneously infused in the rumen and the abomasum. This experimental design allowed each heifer to receive every treatment (consecutively), which provided 4 replicates per treatment. The two experimental periods described in Table 1 lasted 14 days each. For each individual treatment regimen, the fourteen-day period consisted of 8 days of adaptation, 4 days for sampling, and 2 days of rest without any infusions.
Whenever the treatment solution was infused in the rumen, a placebo solution (e.g. saline solution) was infused in the abomasum and whenever the treatment solution was infused in the abomasum, a placebo solution (e.g. water) was infused in the rumen. In the present case, it was necessary to infuse a saline solution in the abomasum (as opposed to water) in order to avoid problems related to osmotic pressure due to the small volume of the abomasum. This situation requires the use of a solution, which has an osmotic pressure similar to that of blood. A physiological saline solution fulfils this requirement. […] Therefore, infusion of water is suitable for the rumen.
Each heifer was equipped with two infusion lines via the cannula bung. Specifically, the first line delivered the solution straight into the rumen; the second line passed through the rumen into the omasum, using a rubber flange as anchor, delivering the pumped solution into the abomasum (Gressley et al. (2006)).
Infusate levels and infusion rates were checked 3 times per day (at 09:00 h;16:00 h and 21:00 h). Whenever necessary, manifold tubes with different inner diameter were replaced to adjust rate or level of solution, aiming to reach 10 L (or 5 L during the first two days of the period) infused continually in 24 h. The infusion rate was set at 3.5 mL/min (5 L/d) for the first two days of adaptation in each experimental period and 6.9 mL/min (10 L/d) for the remaining days.
Samples of compound feed and hay were taken from day 09 to 12 of each experimental period. After samples were collected, a portion was used to determine dried matter content (DM) at 60° C. 72 h and the rest was stored at −20° C. in a large bag labelled with the period number and trial code.

[6] = ammonia infused into abomasum over 24 h (AA)
[7] = ammonia infused into rumen over 24 h (AR)
[8] = during the 48 hours following N infusion into rumen
[9] = urea 127 g/day infused into the abomasum over 24 h (UA)
[10] = urea 127 g/day infused into the rumen once a day (UR)

What does the source list for `N` [ammonia]?
milk production at the end of the treatment (lactating heifers): increased milk production; Feed intake, Crude Protein (Feed) (Holstein heifers [1]; [6]): 0.581 kg/day; Feed intake, Crude Protein (Total) (Holstein heifers [1]; [6]): 0.952 kg/day; Feed intake, Hay Dry Matter (Holstein heifers [1]; [6]): 6.09 kg/day; Feed intake, Neutral detergent fiber (Holstein heifers [1]; [6]): 4.38 kg/day; Feed intake, Organic Matter (Holstein heifers [1]; [6]): 6.58 kg/day; Feed intake, Total Dry Matter (Holstein heifers [1]; [6]): 6.97 kg/day; Feed intake, Crude Protein (Feed) (Holstein heifers [1]; [7]): 0.537 kg/day; Feed intake, Crude Protein (Total) (Holstein heifers [1]; [7]): 0.907 kg/day; Feed intake, Hay Dry Matter (Holstein heifers [1]; [7]): 5.37 kg/day; Feed intake, Neutral detergent fiber (Holstein heifers [1]; [7]): 3.87 kg/day; Feed intake, Organic Matter (Holstein heifers [1]; [7]): 5.90 kg/day; Feed intake, Total Dry Matter (Holstein heifers [1]; [7]): 6.26 kg/day; feed intake of hay and total nutrient, in words (Holstein heifers [1]; ammonia into abomasum relative to ammonia in the rumen): increase in feed intake; body weight at the end of the treatment (Holstein heifers [2]): increased body weight

With urea as the compound, how does the “milk production at the end of the treatment” value (lactating heifers) read?
Its value is “increased milk production”.

What about the N digestibility (Holstein heifers [3]; ((N intake − N excreted)/N intake) * 100) of the same compound?
The N digestibility was 61.81%.

What about the “Total N excretion” value (Holstein heifers [3]; Faecal N excretion + Urinary N excretion, 48 h) of the same compound?
The value was 228.22 g.

And the N excretion faeces (Holstein heifers [3]; [8])?
The N excretion faeces was 119.92 g.

And the N excretion urine (Holstein heifers [3]; [8])?
Its N excretion urine is 108.30 g.

What about the “N Intake” value (Holstein heifers [3]; total N intake in 48 h including N infusion into rumen) of the same compound?
Its value is 307.58 g.

And the “ruminal ammonia concentration over time, in words” value (Holstein heifers [4])?
The value was “higher”.

What about the “body weight at the end of the treatment” value (Holstein heifers [2]) of the same compound?
Its value is “increased body weight”.

What about the “Apparent fiber digestibility, Dry matter” value (Holstein heifers [5]; [9]) of the same compound?
Its value is 51.36%.

What about the “Apparent fiber digestibility, Neutral detergent fiber” value (Holstein heifers [5]; [9]) of the same compound?
The value was 48.27%.

What about the “Apparent fiber digestibility, Organic matter” value (Holstein heifers [5]; [9]) of the same compound?
The value was 52.79%.

And the “Apparent fiber digestibility, Dry matter” value (Holstein heifers [5]; [10])?
Its value is 49.35%.

What about the “Apparent fiber digestibility, Neutral detergent fiber” value (Holstein heifers [5]; [10]) of the same compound?
The value was 43.75%.

And the “Apparent fiber digestibility, Organic matter” value (Holstein heifers [5]; [10])?
Its value is 50.18%.

What about the “apparent fiber digestibility, in words” value (Holstein heifers [5]; urea in the abomasum compared to urea in the rumen) of the same compound?
Its value is “increased”.

From patent publication US11957139B2, “Compositions for improving nitrogen utilization in a ruminant” (Evonik Operations GmbH, priority 2016, dated 2024)
